# Residues, ends and D or L forms follow the SMILES beside them. *: point of attachment. Boc = CC(C)(C)OC(=O)*; Bn = c1ccc(C*)cc1
row,SMILES,melting point
1,COC(=O)c1nc(-c2ccc(Cl)c(S(C)=O)c2F)nc(N)c1Cl (stereo not drawn),256 to 258 °C
2,CCOC(=O)c1cn(CC)c2c(F)c(F)c(F)c(F)c2c1=O,217 to 220 °C
3,CCn1c(=O)c2[nH]c(-c3ccc(S(=O)(=O)O)cc3)nc2n(CC)c1=O,> 360 °C
4,CC(C)CC(NC(=O)C(Cc1ccc(OCc2ccccc2)cc1)NC(=O)OC(C)(C)C)C(=O)O (stereo not drawn) (Boc-Tyr(Bn)-Leu-OH; configuration not given here),90 to 94 °C
5,O=C1NC(=O)C(c2ccc3ccccc3c2)O1 (stereo not drawn),187 to 188 °C
6,CC(C)c1ccc(OC(C)(Cc2ccc(OCCNC(=O)c3ccc(-c4ccccn4)cc3)cc2)C(=O)O)cc1 (stereo not drawn),141 to 143 °C
7,CC(C)(C)C1=NC(=Cc2[nH]c(C(C)(C)C)c3ccccc23)c2ccccc21,195 °C
8,Nc1c(Br)cc(F)c(Cl)c1F,62 °C
9,CN(C)C(=O)Nc1snc(N(C)C)c1C#N,203 to 204 °C
10,O=C(O)CC(O)(Cn1cncn1)c1ccc(Cl)cc1Cl (stereo not drawn),158 to 159 °C
11,CCCCOc1c(NC(CC)CC)c(=O)c1=O,65 to 66 °C
12,COc1ccccc1-c1cc(C(=O)O)cc(-n2cnnn2)c1,214 to 215 °C
13,COc1cc2[nH]c(=O)cc(C(F)(F)F)c2cc1NC(C)=O,280 °C
14,NC(=S)c1cc(F)c2ncc(C(=O)NCc3ccc(Cl)cc3)c(O)c2c1,247 to 248 °C
15,O=[N+]([O-])c1cn2c(n1)O[C@@H](COc1ccc(N3CCN(S(=O)(=O)C(F)(F)C(F)(F)C(F)(F)C(F)(F)F)CC3)cc1)CC2,235 to 236 °C
16,Cc1oc(-c2ccccc2)nc1COc1ccc(COc2ccc(Cl)cc2CC(=O)O)cc1,160 to 161 °C
17,COC(=O)c1cc(-c2ccc(C)cc2)no1,106 to 108 °C
18,C=CCc1cc(C)c2c(c1O)C(C)(C)C(=O)N2,141 to 143 °C
19,O=C1NS(=O)(=O)c2cccc(Cl)c21,210 to 212 °C
20,CC(=O)c1c(C)[nH]c(C)c1C,204 to 207 °C
21,COc1ccc(C(=O)Nc2cc(NC(=O)c3cccc(O)c3)ccc2C)cc1OC,182 to 183 °C
22,CCOc1ccc(CCNC(=O)C(F)(F)F)cc1S(=O)(=O)N=CN(C)C,145 °C
23,CCOC(=O)C(Br)=C(Br)c1ccc(Cl)cc1,67 to 68 °C
24,CCc1c(C)noc1NS(=O)(=O)c1cccc2c(N(C)C)cccc12,55 to 85 °C
25,NC(=O)Cc1ccc(-c2ccc(F)cc2F)c(F)c1,137 to 140 °C

row,SMILES,melting point
1,CCOC(=O)C(C)(C)n1c(=O)[nH]c2cccc(F)c2c1=O,168 to 170 °C
2,CCCn1nc2c(N)nc3ccccc3c2c1CCCc1cc(-c2cccnc2)on1,196 to 198 °C
3,O=S(=O)(CC1CCCCC1)c1nc[nH]n1,172 to 175 °C
4,CS(=O)(=O)c1ccc(-c2ccc(F)n2-c2ccc(F)cc2)cc1,140 to 141 °C
5,Oc1cccc(O)c1CCC(F)(F)F,82 to 84 °C
6,NC(CSCC(O)CN1CCOCC1)C(=O)O (stereo not drawn),200 °C
7,C[C@@H](N)[C@](O)(Cn1cncn1)c1ccc(F)cc1F,156 to 157 °C
8,COc1ccc2cc(NCc3ccc(OCc4ccccc4)cc3)ccc2c1,139 to 141 °C
9,Cc1ccccc1CCCc1c(C(C)C)nc(C(C)C)c(CO)c1-c1ccc(F)cc1,65 to 70 °C
10,CCOC(=O)c1cc(OC)c2oc(C)c(C)c2c1,67 to 68 °C
11,O=C1NC(=O)c2cc(CCCCCN3CCC(c4nc(-c5ccncc5)c(-c5ccc(Cl)c(Cl)c5)[nH]4)CC3)ccc21,129 to 134 °C
12,CNC1(c2ccccc2Cl)C(=O)N(S(=O)(=O)c2ccc([N+](=O)[O-])cc2)c2ccc(Cl)cc21 (stereo not drawn),220 to 221 °C
13,O=C1Cc2cc(C(O)CN3CCC(O)(c4ccccc4)CC3)ccc2N1 (stereo not drawn),192 to 194 °C
14,CC(=O)Nc1nc(CCc2ccc(N)cc2)c(C(=O)NCc2ccc([N+](=O)[O-])cc2)s1,120 to 121 °C
15,CCOCCn1c(N(Cc2ccccc2)C2CCN(C(=O)OCC)CC2)nc2cccnc21,115 °C
16,NC(=CC(=O)N1CCn2c(nnc2C(F)(F)F)C1)Cc1cc(F)c(F)cc1F,271 °C
17,COc1cc(OC)cc(C2CC=CCC2[N+](=O)[O-])c1 (stereo not drawn),73 to 75 °C
18,CNc1ccc(OC)c([N+](=O)[O-])c1OC,57 °C
19,O=C(Nc1cccc2c1C(=O)c1c-2n[nH]c1-c1ccc(C(=O)N2CCNCC2)s1)NN1CCOCC1,241 to 242 °C
20,O=C1c2ccccc2C(=O)N1OC1CCCCCC1,110 to 112 °C
21,Oc1ccccc1CNCCCCCCNCc1ccccc1O,72 to 73 °C
22,O=C(CCC(=O)N1CCC[C@H]1C(=O)O)[C@H](Cc1ccccc1)OCc1ccccc1,114 to 115 °C
23,CC(=O)NCCc1cnn2ccc3c(c12)CCO3,174 to 175 °C
24,O=C(c1ccccc1)c1ccc(Br)s1,41 to 43 °C
25,CCCCCCCCCCCCCCC(=O)C(=O)N[C@@H](CCCC)COCC(=O)OCC,41 to 43 °C

row,SMILES,melting point
1,COc1ccc(CC[C@H]2CN(Cc3ccccc3)CCN2Cc2ccccc2)cc1,88 to 91 °C
2,CCN(CC)c1nc(N)nc(-c2ccc(Cl)c(Cl)c2)n1,201 to 204 °C
3,O=C1CNc2cc(Br)c(Cl)cc2N1,230 to 232 °C
4,CCc1ccc2c(O)ccnc2c1,148 to 152 °C
5,Cc1nc(OS(=O)(=O)C(F)(F)F)c([N+](=O)[O-])c(NCC(C)(C)O)c1C,79 to 80 °C
6,CSc1nc(NN2CCCCC2)c2ncn(C3OC(CCl)C(O)C3O)c2n1 (stereo not drawn),213 to 215 °C
7,CCCc1c(OCCCOc2ccc(C(=O)O)cc2F)ccc(C(C)=O)c1OC(C)=O,144 to 145 °C
8,O=C(Cc1ccccc1)N[C@H]1CN(OCc2ccccc2)C1=O,130 to 131 °C
9,CCCCC(CC(=O)Nc1cc(C(N)=O)ccc1C(C)(C)C)c1ccc(OC)cc1OCC (stereo not drawn),184 to 186 °C
10,CC(C)Oc1cccc(CC(=O)N2CCCC(CCN3CCC(C(=O)c4nc5ccccc5n4Cc4ccc(F)cc4)CC3)(c3ccc(Cl)c(Cl)c3)C2)c1 (stereo not drawn),70 to 73 °C
11,CC1=C(C)C(=O)C(C(CCCCCCC(=O)O)c2cccnc2)=C(C)C1=O (stereo not drawn),113 to 114 °C
12,O=c1ccsn1Cc1ccc(Cl)cc1,88 to 90 °C
13,CCCCCCCCCCCCCCCC(=O)NC(Cc1cc(CP(=O)(O)O)cc(-c2ccccc2)c1)C(=O)O (stereo not drawn),130 to 140 °C
14,CCS(=O)(=O)CCC(=O)NNC(=O)N1Cc2cc(Cl)ccc2Oc2ccc(Cl)cc21,189 to 190 °C
15,Cc1ccc(Oc2cccc(C3C4=C(CC(C)(C)CC4=O)NC4=C3C(=O)CC(C)(C)C4)c2)cc1,202 to 203 °C
16,COC(=O)c1cc(S)cc(S)c1,61 to 62 °C
17,CC=Cn1c2ccccc2c2ccccc21,57 to 58 °C
18,O=Cc1c(Cl)cc(OCc2ccccc2)cc1OCc1ccccc1,85 to 86 °C
19,COc1ccc(OCC2CN(C(C)CO)C(=O)O2)cc1 (stereo not drawn),62 to 67 °C
20,Clc1nccc(-n2ccc3c(SCc4ccccc4)cccc32)n1,159 to 161 °C
21,CCCCCC(=O)OCc1nccc2[nH]c(=O)ccc12,158 to 159 °C
22,CC(C)(C)Sc1cccc(C(F)(F)F)c1S(N)(=O)=O,91 °C
23,O=C(O)Cc1c(C(=O)c2ccc(Cl)cc2)[nH]c2ccc(F)cc12,233 to 238 °C

# Reference: a melting point compilation (Tetko et al.; mined from patent text by program, amines drawn as free bases though some values may be those of a salt)
